# Measurements reported in patent US20150218212A1, “FLUORINATED EPOXYKETONE-BASED TETRAPEPTIDE COMPOUNDS AND USES THEREOF AS PROTEASOME INHIBITORS” (FLUORINOV PHARMA INC., priority 2012, published 2015).
# Experiments:
# M14 = assay: NCI screening panel, M14 (Melanoma); format: cell-based, human
# Method: (§1) Representative compounds of Formula I were screened using the National Cancer Institute (NCI) screening panel, which consists of a panel of human tumor cell lines, representing leukemia, melanoma, and cancers of the lung, colon, ovary, breast, prostate and renal system.
# (§2) After 24 h, two plates of each cell line are fixed in situ with TCA, to represent a measurement of the cell population for each cell line at the time of drug addition (Tz). Experimental drugs are solubilised in dimethyl sulfoxide at 400-fold the desired final maximum test concentration and stored frozen prior to use. At the time of drug addition, an aliquot of frozen concentrate is thawed and diluted to twice the desired final maximum test concentration with complete medium containing 50 μg/mL gentamicin. Additional four, 10-fold or ½ log serial dilutions are made to provide a total of five drug concentrations plus control. Aliquots of 100 μl of these different drug dilutions are added to the appropriate microtiter wells already containing 100 μl of medium, resulting in the required final drug concentrations.
# (§3) Following drug addition, the plates are incubated for an additional 48 h at 37° C., 5% CO2, 95% air, and 100% relative humidity. For adherent cells, the assay is terminated by the addition of cold TCA (trichloroacetic acid). Cells are fixed in situ by the gentle addition of 50 μl of cold 50% (w/v) TCA (final concentration, 10% TCA) and incubated for 60 minutes at 4° C. The supernatant is discarded, and the plates are washed five times with tap water and air dried. Sulforhodamine B (SRB) solution (100 μl) at 0.4% (w/v) in 1% acetic acid is added to each well, and plates are incubated for 10 minutes at room temperature. After staining, unbound dye is removed by washing five times with 1% acetic acid and the plates are air dried. Bound stain is subsequently solubilised with 10 mM trizma base, and the absorbance is read on an automated plate reader at a wavelength of 515 nm. For suspension cells, the methodology is the same except that the assay is terminated by fixing settled cells at the bottom of the wells by gently adding 50 μl of 80% TCA (final concentration, 16% TCA). Using the seven absorbance measurements [time zero, (Tz), control growth, (C), and test growth in the presence of drug at the five concentration levels (Ti)], the percentage growth is calculated at each of the drug concentrations levels. Percentage growth inhibition is calculated as: [(Ti−Tz)/(C−Tz)]×100 for concentrations for which Ti>/=Tz and [(Ti−Tz)/Tz]×100 for concentrations for which Ti<Tz.
# (§4) Three dose response parameters are calculated for each experimental agent. Growth inhibition of 50% (GI50) is calculated from [(Ti−Tz)/(C−Tz)]×100=50, which is the drug concentration resulting in a 50% reduction in the net protein increase (as measured by SRB staining) in control cells during the drug incubation. The drug concentration resulting in total growth inhibition (TGI) is calculated from Ti=Tz. The LC50 (concentration of drug resulting in a 50% reduction in the measured protein at the end of the drug treatment as compared to that at the beginning) indicating a net loss of cells following treatment is calculated from [(Ti−Tz)/Tz]×100=−50. Values are calculated for each of these three parameters if the level of activity is reached. However, if the effect is not reached or is exceeded, the value for that parameter is expressed as greater or less than the maximum or minimum concentration tested.
# NCI/ADR-RES = assay: NCI screening panel, NCI/ADR-RES (Ovarian Cancer); format: cell-based, human
# Method: as §1, §2, §3, §4
# SK-MEL-2 = assay: NCI screening panel, SK-MEL-2 (Melanoma); format: cell-based, human
# Method: as §1, §2, §3, §4
# SNB-19 = assay: NCI screening panel, SNB-19 (CNS Cancer); format: cell-based, human
# Method: as §1, §2, §3, §4
# KMS-11 = assay: Cell viability (MTS) assay, KMS-11; format: cell-based; details: Homo sapiens; KMS-11, MTS, 72 hours, mean ± standard deviation
# Method: Human multiple myeloma cell lines 8226, H929, JJN3, KMH11, KMS11, KMS18, LP1, MM1S, OPM2 and U266 were grown in Iscove modified Dulbecco's medium (IMDM). Human leukemia cell lines K562, OCI-AML2 and U937 were cultured in RPMI-1640 medium. Primary peripheral blood mononuclear cells were isolated from multiple myeloma patients by Ficoll density gradient centrifugation and bone marrow aspirates were obtained from multiple myeloma patients at the Princess Margaret Cancer Centre of the University Health Network (UHN; Toronto, ON, Canada). Primary cells were cultured in IMDM. The collection and use of human tissue for this study was approved by the UHN institutional ethics review board. All cell culture media were obtained from the Ontario Cancer Institute Tissue Culture Media Facility (Toronto, ON, Canada) and were supplemented with 10% fetal calf serum, […] (Hyclone, Logan, Utah). All cells were grown in a humidified incubator at 37° C. with 5% CO2.
# Cellular viability was primarily assessed by 3-(4,5-dimethylthiazol-2-yl)-5-(3-carboxymethoxyphenyl)-2-(4-sulfophenyl)-2H-tetrazolium (MTS) assay according to the manufacturer's instructions (Promega; Madison, Wis.). Cells were first seeded at a density of 10,000 cells per well in tissue culture-treated 96-well plates. Two hours after seeding, cells were treated with compounds for 72 hours at concentrations as indicated. As a control, cells were treated with DMSO alone in every assay plate. Following treatment and the MTS assay, cell viability was independently confirmed by reading the optical density (O.D.) at 490 nm and by exclusion of trypan blue stain (Invitrogen; Burlington, ON, Canada). The viability of primary mononuclear cells was determined by staining with Annexin V.
# Table 8 summarizes the data of representative compounds of Formula I for cell viability and CT-L proteasome activity with OCI-AML-2 and KMS-11 cell lines.
# KM12 = assay: NCI screening panel, KM12 (Colon Cancer); format: cell-based, human
# Method: as §1, §2, §3, §4
structure (smiles),measurement,setting,value
"CC(C)C[C@H](NC(=O)[C@H](COC(F)F)NC(=O)[C@H](COC(F)F)NC(=O)[C@H](COC(F)F)NC(=O)CN1CCOCC1)C(=O)[C@@]1(C)CO1 [Example 17, (2S)-3-(difluoromethoxy)-N-[(1S)-1-(difluoromethoxymethyl)-2-[[(1S)-1-(difluoro-methoxymethyl)-2-[[(1S)-3-methyl-1-[(2R)-2-methyloxirane-2-carbonyl]butyl]amino]-2-oxo-ethyl]amino]-2-oxo-ethyl]-2-[(2-mor-pholinoacetyl)amino]-propanamide]",Log10GI50,M14,−6.59
same,Log10LC50,M14,>−4.00
same,Log10TGI50,M14,−5.41
same,Log10GI50,NCI/ADR-RES,−4.50
same,Log10LC50,NCI/ADR-RES,>−4.00
same,Log10TGI50,NCI/ADR-RES,>−4.00
same,Log10GI50,SK-MEL-2,−7.27
same,Log10LC50,SK-MEL-2,−5.76
same,Log10TGI50,SK-MEL-2,−6.60
same,Log10GI50,SNB-19,−7.16
same,Log10LC50,SNB-19,>−4.00
same,Log10TGI50,SNB-19,−4.67
same,IC50,KMS-11,0.166 ± 0.0134 µM
same,Log10GI50,KM12,−7.34
same,Log10LC50,KM12,−6.24
same,Log10TGI50,KM12,−6.73
